Data as given in patent publication US20100196476A1, “PROCESS FOR THE PREPARATION AND PHARMACEUTICAL FORMULATIONS FOR 4-QUINOLINONES AND QUINOLINES AND USE THEREOF” (FUNDACAO UNIVERSIDADE FEDERAL DE SAO CARLOS, priority 2007, published 2010).

Tests used:
[1] = target: T1, Asp49 BthTX-II phospholipase A2 (Bothrops jararacussu, UniProt P45881); assay: myotoxic activity in mice, BthTX-II; format: in vivo, B. jararacussu
T1 construct: isolated myotoxins (BthTX-I and II); from tissue; host or cells: venom of B. jararacussu
T1 sequence (P45881 17-138): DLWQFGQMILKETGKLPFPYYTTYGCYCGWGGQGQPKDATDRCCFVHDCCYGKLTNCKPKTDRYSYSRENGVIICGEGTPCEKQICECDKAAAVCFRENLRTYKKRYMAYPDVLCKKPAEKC

[2] = target: T2, Class III metalloprotease BjussuMP-I (Bothrops jararacussu, UniProt Q1PHZ4); assay: proteolytic activity in casein, BjussuMP-I; format: biochemical, B. jararacussu; details: ratio of 1:10 protease:inhibitor (m/m)
T2 construct: BjussuMP-I isolated from B. jararacussu; from tissue; host or cells: venom of B. jararacussu
T2 sequence (Q1PHZ4 134-547): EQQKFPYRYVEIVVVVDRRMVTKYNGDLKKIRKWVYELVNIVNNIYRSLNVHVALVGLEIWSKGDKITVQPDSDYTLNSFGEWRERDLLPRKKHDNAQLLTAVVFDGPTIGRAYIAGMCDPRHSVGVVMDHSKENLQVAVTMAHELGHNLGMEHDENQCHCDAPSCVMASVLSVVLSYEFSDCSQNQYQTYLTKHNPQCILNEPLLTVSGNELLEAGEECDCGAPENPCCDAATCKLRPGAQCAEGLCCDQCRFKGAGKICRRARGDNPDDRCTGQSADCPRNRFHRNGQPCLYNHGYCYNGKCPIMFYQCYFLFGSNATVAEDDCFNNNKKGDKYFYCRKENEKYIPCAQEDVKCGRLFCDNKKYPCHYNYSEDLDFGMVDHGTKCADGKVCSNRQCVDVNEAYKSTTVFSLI

[3] = target: T3, Lys49 BthTX-I phospholipase A2 (Bothrops jararacussu, UniProt Q90249); assay: myotoxic activity in mice, BthTX-I; format: in vivo, B. jararacussu
T3 construct: isolated myotoxins (BthTX-I and II); from tissue; host or cells: venom of B. jararacussu
T3 sequence (Q90249 17-137 limits assumed): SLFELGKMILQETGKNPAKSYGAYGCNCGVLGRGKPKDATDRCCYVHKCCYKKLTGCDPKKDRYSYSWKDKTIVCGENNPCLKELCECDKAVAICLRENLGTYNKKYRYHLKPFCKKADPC

## COc1ccc2[nH]c(CO)cc(=O)c2c1 [Compound 2, 2-hydroxymethyl-6-methoxy-1,4-dihydro-4-quinolinone]
[1]
  effect on myotoxic activity: inhibited
[2]
  inhibition of proteolytic activity: ~70%
[3]
  effect on myotoxic activity: inhibited
